{"source": "patent US20260240810A1", "about": "“COMPOSITIONS AND METHODS FOR REDUCING ADVERSE SIDE EFFECTS IN CANCER TREATMENT” (priority 2022, published 2026)", "key": {"[1]": {"assay": "Repeated-dose toxicity study in dogs", "format": "in vivo", "protocol": "Repeated-dose toxicity studies of RRx-001 (3 times/week up to 4 weeks in duration) were conducted in rats at dose levels of 12 mg/kg, 20.1 mg/kg, and 30 mg/kg per day and in dogs at dose levels of 4 mg/kg, 8 mg/kg, and 12 mg/kg per day (due to clinical signs, the 8 mg/kg and 12 mg/kg doses were reduced to 3 mg/kg and 5 mg/kg on Day 4). The no observed adverse effect level was <12 mg/kg in rats and 5 mg/kg in dogs."}, "[2]": {"tested_on": "severe oral mucositis in patients receiving head and neck chemoradiotherapy", "assay": "PREVLAR Phase 2a trial: oral mucositis in patients receiving cisplatin + IMRT", "format": "in vivo, human", "details": "for Median SOM duration: all patients, baseline to last day of radiation, 0 days if never SOM; for percent of SOM visits: minimum 65 Gy cumulative radiation; for median duration of SOM: only patients who developed SOM, onset to last visit with SOM", "protocol": "Referring to FIG. 1, FIG. 1 is a table 100 showing a trial in which RRx-001 was tested in various groups of patients that were being treated for cancer with a combination of chemotherapy and IMRT. The various groups were divided into “Arms” based on a treatment: • Arm 1. pretreatment with 4 mg RRx-001 2 times per week for 2 weeks followed by 40 mg/m^2 each week or 100 mg/m^2 once every 3 weeks cisplatin+IMRT. • Arm 2. pretreatment with 4 mg RRx-001 2 times per week for 2 weeks followed by cotreatment with 4 mg RRx-001 2 times once on week 2 and once on week 5+40 mg/m^2 each week or 100 mg/m^2 once every 3 weeks cisplatin+IMRT. • Arm 3. pretreatment with 4 mg RRx-001 2 times per week for 2 weeks followed by cotreatment with 4 mg RRx-001 […]+40 mg/m^2 each week or 100 mg/m^2 once every 3 weeks cisplatin+IMRT. • Arm 4. standard of care 40 mg/m^2 each week or 100 mg/m^2 once every 3 weeks cisplatin+IMRT without RRx-001.\nAccordingly, patients in Arm 1 of the study were administered a pretreatment of RRx-001 over a 2-week period. No RRx-001 was administered to the patients following the pretreatment period. Following the 2-week pretreatment period, the therapeutic agent comprising cisplatin and IMRT was administered to the patients over a 6-week period.\nPatients in Arm 2 of the study were likewise administered a pretreatment of RRx-001 over a 2-week period. But RRx-001 was further administered at a low dose concurrently with cisplatin and IMRT over the 6-week period following the pretreatment period.\nArm 4 of the study was the control or standard of care (SOC). No RRx-001 was administered to the patients in Arm 4 of the study and there was no pretreatment period. All patients received the same amounts of cisplatin and IMRT for Arm 1, Arm2, Arm 3, and Arm 4 of the study. Patients in the study had the option to stop or refuse treatment at any time and not all patients finished the entire treatment.\nExample 2 is a Phase 2a randomized, multi-institutional (n=13, of which 12 enrolled), open-label/unblinded, controlled trial in which patients were centrally randomized into four groups (“Arms”), with approximately 10 patients per Arm (or group) before the start of CRT, stratified by oropharynx versus oral cavity site. See M. Bonomi, et al. (2023) Int. J. Radiat. Oncol. Biol. Phys. 116(3): p. 551-559.\nStudy participants were adults (>18 years) with pathologically diagnosed stage III to IVB locally advanced (nonmetastatic) squamous cell carcinoma of the oral cavity or oropharynx that were scheduled to receive definitive or postoperative daily fractionation IMRT of 2.0 Gy to 2.2 Gy for a total dose of 60 Gy to 72 Gy with concomitant cisplatin given as either weekly (40 mg/m^2) or tri-weekly (100 mg/m^2) infusions. Radiation fields included at least 2 oral sites at risk of OM (e.g., buccal mucosa, floor of mouth, lateral/ventral tongue, or soft palate), which were planned to receive a minimum cumulative dose of 55 Gy. […] Patients received a pretreatment evaluation including complete history, dental assessment, physical examination, complete blood count and complete metabolic profile, hematology and biochemistry profiles, optional laryngoscopy, chest computed tomography (CT) or positron emission tomography (PET)/CT, CT, and a magnetic resonance imaging (MRI) or PET/CT of the tumor site and neck nodes.\nArms 1 to 3 received twice weekly infusions of RRx-001, 4 mg/dose after a premedication dose of dexamethasone (10 mg) for the 2 weeks preceding the start of CRT. Patients in Arm 2 received two additional 4 mg doses of RRx-001 after being premedicated with dexamethasone in weeks 2 and 5 of their CRT regimen. Patients in Arm 3 received weekly RRx-001 (4 mg after dexamethasone pre-dosing) during the first 6 weeks of CRT. Treatment was completed on the last day of radiation therapy (LDRT).\nThe treatment phase commenced 2 weeks before the start of CRT and continued until the LDRT. […]"}, "[3]": {"details": "cited from earlier work"}, "[4]": {"details": "Arm 1: RRx-001 pretreatment + SOC chemoradiation"}}}
{"smiles": "O=C(CBr)N1CC([N+](=O)[O-])([N+](=O)[O-])C1", "note": "[RRx-001, 2-bromo-1-(3,3-dinitroazetidin-1-yl) ethan-1-one]", "values": [{"measurement": "no observed adverse effect level", "setting": "[1]; 3 times/week up to 4 weeks", "result": 5, "unit": "mg/kg"}, {"measurement": "organ effects", "setting": "[1]; repeated dose", "result": "Effects on lungs were observed"}, {"measurement": "estimate (averaged across all visits) MMRM probability of SOM", "setting": "[2]; (pooled) RRx-001 treatment", "result": 15.3, "unit": "%"}, {"measurement": "incidence of SOM (any WHO score ≥3 between baseline to the last day of radiation)", "setting": "[2]; Arm 1", "result": 83.3, "unit": "%"}, {"measurement": "patients with at least one day of Grade 4 OM between the first and LDRT", "setting": "[2]; Arm 1", "result": 23.1, "unit": "%"}, {"measurement": "percent of visits with most severe forms (Grade 4) mucositis", "setting": "[2]; Arm 1", "result": 3.3, "unit": "%"}, {"measurement": "decrease in duration of SOM through 60 Gy vs. Arm 4", "setting": "[2]; Arm 1: 4 mg RRx-001 2 times per week for 2 weeks pretreatment, then cisplatin+IMRT", "result": 16, "unit": "days"}, {"measurement": "average days longer than Arm 4 before onset of SOM from start of chemotherapy", "setting": "[2]; [4]", "result": 12, "unit": "days"}, {"measurement": "decrease in SOM duration following treatment of IMRT compared to Arm 4", "setting": "[2]; [4]", "result": 18, "unit": "days"}, {"measurement": "Median SOM duration", "setting": "[2]; Arm 1", "result": 5, "unit": "days"}, {"measurement": "percent of SOM visits", "setting": "[2]; Arm 1", "result": 23.6, "unit": "%"}, {"measurement": "median duration of SOM", "setting": "[2]; Arm 1", "result": 8.5, "unit": "days"}, {"measurement": "incidence of SOM (any WHO score ≥3 between baseline to the last day of radiation)", "setting": "[2]; Arm 2", "result": 70, "unit": "%"}, {"measurement": "patients with at least one day of Grade 4 OM between the first and LDRT", "setting": "[2]; Arm 2", "result": 40, "unit": "%"}, {"measurement": "percent of visits with most severe forms (Grade 4) mucositis", "setting": "[2]; Arm 2", "result": 12.2, "unit": "%"}, {"measurement": "incidence of grade 4 OM through 60 Gy", "setting": "[2]; Arm 2: RRx-001 pretreatment + 2 concurrent doses + SOC chemoradiation", "result": 40, "unit": "%"}, {"measurement": "Median SOM duration", "setting": "[2]; Arm 2", "result": 13.5, "unit": "days"}, {"measurement": "percent of SOM visits", "setting": "[2]; Arm 2", "result": 22.2, "unit": "%"}, {"measurement": "median duration of SOM", "setting": "[2]; Arm 2", "result": 17, "unit": "days"}, {"measurement": "incidence of SOM (any WHO score ≥3 between baseline to the last day of radiation)", "setting": "[2]; Arm 3", "result": 76.9, "unit": "%"}, {"measurement": "patients with at least one day of Grade 4 OM between the first and LDRT", "setting": "[2]; Arm 3", "result": 46.2, "unit": "%"}, {"measurement": "percent of visits with most severe forms (Grade 4) mucositis", "setting": "[2]; Arm 3", "result": 7.7, "unit": "%"}, {"measurement": "incidence of grade 4 OM through 60 Gy", "setting": "[2]; Arm 3: RRx-001 pretreatment + 6 concurrent doses + SOC chemoradiation", "result": 46, "unit": "%"}, {"measurement": "Median SOM duration", "setting": "[2]; Arm 3", "result": 8, "unit": "days"}, {"measurement": "percent of SOM visits", "setting": "[2]; Arm 3", "result": 25.7, "unit": "%"}, {"measurement": "median duration of SOM", "setting": "[2]; Arm 3", "result": 10, "unit": "days"}, {"measurement": "Odds ratio estimate", "setting": "[2]; MMRM analysis of SOM, contrast SOC alone / (Pooled RRx-001)", "result": 3.24}, {"measurement": "SOM Probability (averaged across all visits)", "setting": "[2]; MMRM analysis, pooled RRx-001-treated patients", "result": 0.153}, {"measurement": "aggregate percent of SOM visits", "setting": "[2]; active arms, patients with minimum 65 Gy cumulative radiation", "result": 23.9, "unit": "%"}, {"measurement": "incidence of SOM through the short-term follow-up period", "setting": "[2]; active patients", "result": 80, "unit": "%"}, {"measurement": "SOM incidence by the last dose of radiotherapy (LDRT)", "setting": "[2]; aggregate active Arms, about 72 Gy", "result": 77.1, "unit": "%"}, {"measurement": "patients exhibiting SOM", "setting": "[2]; patients who received RRx-001 (treated Arms), cumulative RT dose 45 Gy", "result": 42.9, "unit": "%"}, {"measurement": "patients exhibiting SOM", "setting": "[2]; treated Arms, 55 Gy", "result": 57.1, "unit": "%"}, {"measurement": "patients exhibiting SOM", "setting": "[2]; treated Arms, 65 Gy", "result": 71.4, "unit": "%"}, {"measurement": "dose-limiting toxicities and drug-drug interactions", "setting": "[3]; N. Jayabalan et al. 2023", "result": "no dose-limiting toxicities and no drug-drug interactions have been observed"}, {"measurement": "safety and tolerability in humans", "setting": "[3]; studies from multiple independent groups", "result": "safe and well-tolerated"}, {"measurement": "tolerability in prior safety assessments in humans", "setting": "[3]; with and without concurrent radiation therapy, T. Reid et al. 2015", "result": "well-tolerated without significant toxicity"}]}
